Laboratory results published in patent US20240173432A1, “Compositions and Methods for Treatment of Myotonic Dystrophy Type 1 with CRISPR/SluCas9” (Vertex Pharmaceuticals Incorporated, priority 2021, published 2024).

What follows are substances tested on CUG foci in primary DM1 patient myoblasts (assay: Dual-cut screening: FISH staining of CUG RNA foci). Details: sgRNA pair; primary DM1 patient myoblasts; 3 μM DNA-PKi Compound 6 for 48 hours.
Assay type: cell-based, human
Summary of the method: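 SluCas9 RNPs (protein:sgRNA 1:3; 20 pmol SluCas9 + 60 pmol sgRNA per guide, paired 1:1) nucleofected into primary DM1 patient myoblasts, then DMSO or 3 μM DNA-PKi Compound 6 for 48 h. At 72 h post-nucleofection cells fixed, FISH-stained with Cy3-PNA(CAG)5 probe plus anti-MBNL1 and Hoechst; % CUG foci-free nuclei by high-content confocal imaging.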

| Substance | % of CUG foci free nuclei (DNA-PKi) [%] |
| --- | --- |
| SluU21 + SluD48 (guide 1 GCTCGGAGCGGTTGTGAACTGG; guide 2 GAGAGCAGCGCAAGTGAGGAGG; guide RNA; listed as DNA, chemistry not fully specified) | 86.36 |
| SluU21 + SluD56 (guide 1 GCTCGGAGCGGTTGTGAACTGG; guide 2 CCAGCCGGCTCCGCCCGCTTCG; guide RNA; listed as DNA, chemistry not fully specified) | 85.39 |
| SluU21 + SluD68 (guide 1 GCTCGGAGCGGTTGTGAACTGG; guide 2 CCTGTAGCCTGTCAGCGAGTCG; guide RNA; listed as DNA, chemistry not fully specified) | 87.57 |
| SluU21 + SluD73 (guide 1 GCTCGGAGCGGTTGTGAACTGG; guide 2 CCAAAACGTGGATTGGGGTTGT; guide RNA; listed as DNA, chemistry not fully specified) | 88.18 |
| SluU21 + SluD83 (guide 1 GCTCGGAGCGGTTGTGAACTGG; guide 2 GTGGGGACAGACAATAAATACC; guide RNA; listed as DNA, chemistry not fully specified) | 89.23 |
| SluU21 + SluD100 (guide 1 GCTCGGAGCGGTTGTGAACTGG; guide 2 GTCCAGAGCTTTGGGCAGATGG; guide RNA; listed as DNA, chemistry not fully specified) | 87.7 |
| SluU59 + SluD32 (guide 1 CGCGGCCGGCGAACGGGGCTCG; guide 2 CTTGTGCATGACGCCCTGCTCT; guide RNA; listed as DNA, chemistry not fully specified) | 91.19 |
| SluU59 + SluD34 (guide 1 CGCGGCCGGCGAACGGGGCTCG; guide 2 CGCGCCAGACGCTCCCCAGAGC; guide RNA; listed as DNA, chemistry not fully specified) | 89.01 |

Same assay, conditions: sgRNA pair; primary DM1 patient myoblasts; vehicle (DMSO)

| Substance | % of CUG foci free nuclei (Vehicle) [%] |
| --- | --- |
| SluU21 + SluD48 (guide 1 GCTCGGAGCGGTTGTGAACTGG; guide 2 GAGAGCAGCGCAAGTGAGGAGG; guide RNA; listed as DNA, chemistry not fully specified) | 51.76 |
| SluU21 + SluD56 (guide 1 GCTCGGAGCGGTTGTGAACTGG; guide 2 CCAGCCGGCTCCGCCCGCTTCG; guide RNA; listed as DNA, chemistry not fully specified) | 31.9 |
| SluU21 + SluD68 (guide 1 GCTCGGAGCGGTTGTGAACTGG; guide 2 CCTGTAGCCTGTCAGCGAGTCG; guide RNA; listed as DNA, chemistry not fully specified) | 51.5 |
| SluU21 + SluD73 (guide 1 GCTCGGAGCGGTTGTGAACTGG; guide 2 CCAAAACGTGGATTGGGGTTGT; guide RNA; listed as DNA, chemistry not fully specified) | 51.12 |
| SluU21 + SluD83 (guide 1 GCTCGGAGCGGTTGTGAACTGG; guide 2 GTGGGGACAGACAATAAATACC; guide RNA; listed as DNA, chemistry not fully specified) | 51.65 |
| SluU21 + SluD100 (guide 1 GCTCGGAGCGGTTGTGAACTGG; guide 2 GTCCAGAGCTTTGGGCAGATGG; guide RNA; listed as DNA, chemistry not fully specified) | 48.33 |
| SluU59 + SluD32 (guide 1 CGCGGCCGGCGAACGGGGCTCG; guide 2 CTTGTGCATGACGCCCTGCTCT; guide RNA; listed as DNA, chemistry not fully specified) | 69.23 |
| SluU59 + SluD34 (guide 1 CGCGGCCGGCGAACGGGGCTCG; guide 2 CGCGCCAGACGCTCCCCAGAGC; guide RNA; listed as DNA, chemistry not fully specified) | 76.47 |

What follows are substances tested on CTG repeat in the 3′ UTR of human DMPK gene (assay: Dual-cut screening: CTG repeat excision efficiency by loss-of-signal ddPCR). Details: sgRNA pair; primary DM1 patient myoblasts; 3 μM DNA-PKi Compound 6 for 48 hours.
Assay type: cell-based
Protocol: RNPs were assembled with recombinant SluCas9 protein and chemically modified sgRNAs at a ratio of 1:3 (protein:sgRNA). For SINGLE-cut screening, RNP complexes were assembled with 30 pmol of SluCas9 and 90 pmol of sgRNA in P5 Primary Cell Nucleofector Solution (Lonza). After incubation at room temperature for 20 minutes, 10 μL of RNP complex were mixed with two hundred thousand of primary myoblasts resuspended in 10 μL of P5 Nucleofector Solution. For DOUBLE-cut screening, RNP complexes were first assembled for individual sgRNAs with 20 pmol of SluCas9 protein and 60 pmol of sgRNAs in 5 μL of P5 Nucleofector Solution. After incubation at room temperature for 20 minutes, the two RNP complexes (one for upstream sgRNA and one for downstream sgRNA) were mixed at 1:1 ratio and then further mixed with two hundred thousand of primary myoblasts resuspended in 10 μL of P5 Nucleofector Solution.
The Nucleofector 96-well Shuttle System (Lonza) was used to deliver the SluCa9/sgRNA RNPs into primary DM1 patient myoblasts using the nucleofection program CM138. Following nucleofection, myoblasts from each well of nucleofection shuttle were split into six wells of the 96-well cell culture plate (Greiner, 655090) coated with matrigel. The first three wells were treated with DMSO for 48 hrs before changing to fresh myoblast growth medium, and the other three wells were treated with 3 μM of DNA-PKi Compound 6 for 48 hrs before changing to fresh myoblast growth medium. 72 hrs post nucleofection, two wells of DMSO-treated myoblasts and two wells of DNA-PKi-treated myoblasts from each nucleofection were harvested for genomic DNA extraction using the Kingfisher Flex purification system (Thermal Fisher), whereas one well of DMSO-treated myoblasts and one well of DNA-PKi-treated myoblasts were stained for RNA foci by FISH staining.
The primers and probes of ddPCR are designed using the online primer design software Primer3Plus (http://www.bioinformatics.nl/cgi-bin/primer3plus/primer3plus.cgi). In some embodiments, two target primers/probe sets were used to detect CTG repeat excision, and a reference primers/probe set were used to amplify a region located in Exon 1 of human DMPK gene and to serve as a reference control for the target sets. The 24 μL of ddPCR reaction consists of 12 μL of Supermix for Probes (no dUTP) (Bio-Rad Laboratories), 1 μL of Reference primers mix (21.6 μM), 1 μL of Reference probe (6 μM), 1 μL of Target primers mix (21.6 μM), 1 μL of Target probe (6 μM), and 8 μL of sample genomic DNA. Droplets were generated using probe oil with the QX200 Droplet Generator (Bio-Rad Laboratories). Droplets were transferred to a 96-well PCR plate, sealed and cycled in a C1000 deep well Thermocycler (Bio-Rad Laboratories) under the following cycling protocol: 1 cycle at 95° C. for 10 min; 40 cycles of 94° C. for 30 see, and 58° C. for 1 min; 1 cycle at 98° C. for 10 min (for enzyme inactivation). The cycled plate was then transferred and read in the FAM and HEX channels using the Bio-Rad QX200 Droplet Reader (Bio-Rad Laboratories). ddPCR analysis is performed with the Bio-Rad QuantaSoft Pro Software.
To assess the efficiency of SluCas9 sgRNA pairs for inducing CTG repeat excision, Dual-cut screening was performed in which individual SluCas9 sgRNAs and recombinant SluCas9 protein were assembled into ribonucleoprotein (RNP) and delivered into primary DM1 patient myoblasts. Nucleofected myoblasts were treated with either DMSO (vehicle) or 3 μM of DNA-dependent Protein Kinase Inhibitor (DNA-PKi) Compound 6 for 48 hours. 72 hours post-nucleofection, myoblasts were subjected to either genomic DNA isolation or RNA foci staining by fluorescence in situ hybridization (FISH).
CRISPR repeat excision efficiency was assessed for each of the 88 pairs (FIG. 8A-B and Table 5). CTG repeat excision efficiency percentages are shown for vehicle (DMSO; white bars) and with DNA-PKi (black bars) (FIG. 8B and Table 5).

| Substance | Excision efficiency (by ddPCR) |
| --- | --- |
| SluU21 + SluD48 (guide 1 GCTCGGAGCGGTTGTGAACTGG; guide 2 GAGAGCAGCGCAAGTGAGGAGG; guide RNA; listed as DNA, chemistry not fully specified) | 59.19 |
| SluU21 + SluD56 (guide 1 GCTCGGAGCGGTTGTGAACTGG; guide 2 CCAGCCGGCTCCGCCCGCTTCG; guide RNA; listed as DNA, chemistry not fully specified) | 59.97 |
| SluU21 + SluD68 (guide 1 GCTCGGAGCGGTTGTGAACTGG; guide 2 CCTGTAGCCTGTCAGCGAGTCG; guide RNA; listed as DNA, chemistry not fully specified) | 58.7 |
| SluU21 + SluD73 (guide 1 GCTCGGAGCGGTTGTGAACTGG; guide 2 CCAAAACGTGGATTGGGGTTGT; guide RNA; listed as DNA, chemistry not fully specified) | 61.57 |
| SluU21 + SluD83 (guide 1 GCTCGGAGCGGTTGTGAACTGG; guide 2 GTGGGGACAGACAATAAATACC; guide RNA; listed as DNA, chemistry not fully specified) | 63.44 |
| SluU21 + SluD100 (guide 1 GCTCGGAGCGGTTGTGAACTGG; guide 2 GTCCAGAGCTTTGGGCAGATGG; guide RNA; listed as DNA, chemistry not fully specified) | 63.99 |
| SluU59 + SluD32 (guide 1 CGCGGCCGGCGAACGGGGCTCG; guide 2 CTTGTGCATGACGCCCTGCTCT; guide RNA; listed as DNA, chemistry not fully specified) | 83.32 |
| SluU59 + SluD34 (guide 1 CGCGGCCGGCGAACGGGGCTCG; guide 2 CGCGCCAGACGCTCCCCAGAGC; guide RNA; listed as DNA, chemistry not fully specified) | 71.96 |

Same assay, conditions: sgRNA pair; primary DM1 patient myoblasts; vehicle (DMSO)

| Substance | Excision efficiency by ddPCR (Vehicle) |
| --- | --- |
| SluU21 + SluD48 (guide 1 GCTCGGAGCGGTTGTGAACTGG; guide 2 GAGAGCAGCGCAAGTGAGGAGG; guide RNA; listed as DNA, chemistry not fully specified) | 36.66 |
| SluU21 + SluD56 (guide 1 GCTCGGAGCGGTTGTGAACTGG; guide 2 CCAGCCGGCTCCGCCCGCTTCG; guide RNA; listed as DNA, chemistry not fully specified) | 25.94 |
| SluU21 + SluD68 (guide 1 GCTCGGAGCGGTTGTGAACTGG; guide 2 CCTGTAGCCTGTCAGCGAGTCG; guide RNA; listed as DNA, chemistry not fully specified) | 35.67 |
| SluU21 + SluD73 (guide 1 GCTCGGAGCGGTTGTGAACTGG; guide 2 CCAAAACGTGGATTGGGGTTGT; guide RNA; listed as DNA, chemistry not fully specified) | 36.17 |
| SluU21 + SluD83 (guide 1 GCTCGGAGCGGTTGTGAACTGG; guide 2 GTGGGGACAGACAATAAATACC; guide RNA; listed as DNA, chemistry not fully specified) | 37.42 |
| SluU21 + SluD100 (guide 1 GCTCGGAGCGGTTGTGAACTGG; guide 2 GTCCAGAGCTTTGGGCAGATGG; guide RNA; listed as DNA, chemistry not fully specified) | 36.68 |
| SluU59 + SluD32 (guide 1 CGCGGCCGGCGAACGGGGCTCG; guide 2 CTTGTGCATGACGCCCTGCTCT; guide RNA; listed as DNA, chemistry not fully specified) | 57.23 |
| SluU59 + SluD34 (guide 1 CGCGGCCGGCGAACGGGGCTCG; guide 2 CGCGCCAGACGCTCCCCAGAGC; guide RNA; listed as DNA, chemistry not fully specified) | 55.22 |
